# Assays:
# APP/PS1 mice = assay: Contextual fear conditioning after i.c.v. infusion; type: in vivo, mouse; details: VO-OHpic infusion
# Experimental: APP/PS1 and wild-type mice were anesthetized with isofluorane, and i.c.v. delivery cannulas (brain alzet kit III) were implanted with a stereotaxic frame (KOPF Instruments) at the following coordinates according to the bregma: AP, −0.5 mm; ML, 1 mm; and DV, −2.2 mm. Osmotic minipumps (Alzet) were filled with artificial cerebrospinal fluid (aCSF) with or without PTEN inhibitor VO-OHpic (2.5 μM) and equilibrated in 0.9% NaCl at 37° C. for 48 hours. They were attached to the i.c.v. cannula tubing and subcutaneously implanted at the back. After 21 days, behavioral testing was started as described herein. […]
# Fear conditioning. […] The animals' behavior was scored by an observer blind to the treatment condition. Using a time-sampling procedure every 2 seconds, each mouse was scored blindly as either freezing or active at the instant the sample was taken. […]
# It was posited that if early Aβ-induced cognitive impairment results from a general synaptic bias toward LTD events (Selkoe (2002) Science 298:789-791), dampening this form of synaptic plasticity might prevent cognitive decay. Therefore, it was determined whether in vivo inhibition of PTEN, a lipid phosphatase that is involved in LTD (Jurado, et al. (2010) EMBO J. 29:2827-2840), would rescue cognitive deficits in APP/PS1 mice. […]
# [1] = test system: hippocampal CA3 and CA1 cells from acute slices; assay: fEPSP input-output curve (basal synaptic transmission) in acute hippocampal slices exposed to protofibrillar Aβ42; type: cell-based, mice
# Experimental: Mice were anesthetized with sodium pentothal (20 mg/kg ip) and decapitated. The brain was rapidly removed to ice-cold, oxygenated, dissection solution. Coronal slices (300 μm) were made with a vibratome (LEICA VT1200S) and slices were moved to a recovery chamber containing aCSF at room temperature for at least 1.5 hour before recording.
# A concentric bipolar platinum-iridium stimulation electrode and a low-resistance glass recording microelectrode filled with aCSF (3-4 MΩ resistance) were placed in CA1 stratum radiatum to record the extracellular field excitatory postsynaptic potentials (fEPSPs). For each slice, an input-output curve was recorded to compare basal synaptic transmission at different conditions. This curve was also used to set the baseline fEPSP at ≈30% (for LTP experiments) or ≈50% (for LTD experiments) of maximal slope. Baseline stimulation was delivered every 15 seconds (0.01 ms duration pulses) for at least 20 minutes before beginning the experiment to ensure stability of the response. LTP was induced by using θ-burst stimulation (4 pulses at 100 Hz, with the bursts repeated at 5 Hz and each tetanus including three 10-burst trains separated by 15 seconds). LTD was induced using 900 pulses at 1 Hz. Responses were recorded for 1 hour after induction of LTP or LTD.
# Dissection solution (employed for slicing) composition: 10 mM D-glucose, 4 mM KCl, 26 mM NaHCO3, 233.7 mM sucrose, 5 mM MgCl2, 1:1000 Phenol Red. Artificial CSF (employed for recovery and recording) composition: 119 mM NaCl, 2.5 mM KCl, 1 mM NaH2PO4, 11 mM glucose, 1.2 mM MgCl2, 2.5 mM CaCl2. Osmolarity was adjusted to […].
# For the first approach, protofibrillar Aβ was prepared by promoting aggregation under high-salt conditions (258 μM Aβ42, room temperature incubation (Jan, et al. (2010) Nat. Protoc. 5:1186-1209). The kinetics of Aβ42 aggregation were followed by thioflavin T fluorescence and SDS-PAGE western blot analysis with the N-terminal anti-Aβ antibody 6E10. Also, the heterogeneous nature of these Aβ42 assemblies was evidenced by electron microscopy. Synaptic function was assessed by electrophysiological recordings of field excitatory postsynaptic potential (fEPSPs) between hippocampal CA3 and CA1 cells from acute slices prepared from 5-month-old mice. The results indicated a ≈60% decrease in the magnitude of synaptic transmission (input-output curve) when slices were incubated for 2 hours in aCSF containing pathogenic protofibrillar Aβ42 species (1 μM). This decrease in the basal synaptic transmission was prevented when Aβ was added to slices that were preincubated with the PTEN inhibitor (50 nM VO-OHpic) for 1 hour (VO-OHpic and Aβ were also present in the perfusion solution during electrophysiological recordings). VO-OHpic alone had no effect on basal synaptic transmission. […] The potency and specificity of this inhibitor have been documented previously (Rosivatz, et al. (2006) ACS Chem. Biol. 1:780-790).
# The effect of these peptides on Aβ-treated neurons was subsequently tested.
# PTEN = assay: phospho-Akt and phospho-Tyr levels in acute hippocampal slices; type: cell-based, mice
smiles,measurement,setting,value
O=C(O)c1ncccc1O.O=C(O)c1ncccc1O.[O]=[V][O-] [VO-OHpic],contextual fear conditioning performance (percentage freezing to the context),"APP/PS1 mice; APP/PS1 mice, P=0.002",significantly improved their performance
same,contextual fear conditioning performance (percentage freezing to the context),APP/PS1 mice; wild-type mice,without altering
same,Aβ42-induced decrease in basal synaptic transmission,"[1]; 50 nM VO-OHpic preincubated 1 hour, then 1 μM protofibrillar Aβ42 for 2 hours",prevented
same,"basal synaptic transmission, inhibitor alone","[1]; VO-OHpic alone, no Aβ",no effect
same,phospho-Akt (PIP3 downstream effector),PTEN,upregulation
same,phospho-Tyr levels (specificity versus Tyr phosphatases),PTEN,lack of effect

# — patent publication US20170165317A1, “METHOD FOR MITIGATING OR ALLEVIATING SYNAPTIC AND COGNITIVE DEFICITS” (Trustees of Dartmouth College, priority 2013, published 2017)
